Test results published in ChEMBL document CHEMBL5523757, “Discovery, Synthesis, and Activity Evaluation of Novel Five-Membered Sulfur-Containing Heterocyclic Nucleosides as Potential Anticancer Agents In Vitro and In Vivo” (J Med Chem, 2024).
Calls of active or inactive are those of the source. The rule behind the calls is not given here.

What was measured:
[1] = system: Cell membrane; experiment: Induction of mitochondrial membrane potential loss in human HeLa cells assessed as increase in green fluorescence at 2 to 8 uM incubated for 48 hrs by JC-1 staining based flow cytometry; conditions: dose 2-8 µM
[2] = system: HeLa; experiment: Induction of endoplasmic reticulum (ER) stress in human HeLa cells assessed as increase in red fluorescence intensity at 2 to 8 uM incubated for 48 hrs by ER-tracker red dye based fluorescence microscopic analysis; format: functional, cell-based; conditions: dose 2-8 µM
[3] = system: HeLa; experiment: Inhibition of colony formation in human HeLa cells at 2 to 8 uM incubated for 2 weeks by crystal violet staining based microscopic analysis; format: functional, cell-based; conditions: dose 2-8 µM
[4] = system: HeLa; experiment: Induction of autophagy in human HeLa cells assessed as downregulation of PI3K expression at 2 to 8 uM incubated for 48 hrs by Western blot analysis; format: functional, cell-based; conditions: dose 2-8 µM
[5] = system: HeLa; experiment: Inhibition of cell invasion in human HeLa cells at 2 to 8 uM incubated for 48 hrs by crystal violet staining based transwell invasion assay; format: functional; conditions: dose 2-8 µM
[6] = system: HeLa; experiment: Induction of autophagy in human HeLa cells assessed as downregulation of mTOR phosphorylation at 2 to 8 uM incubated for 48 hrs by Western blot analysis; format: functional, cell-based; conditions: dose 2-8 µM
[7] = system: HeLa; experiment: Induction of apoptosis in human HeLa cells assessed as upregulation of cleaved caspase-3 expression incubated for 48 hrs by Western blot analysis; format: functional, cell-based
[8] = system: HeLa; experiment: Induction of cell cycle arrest in human HeLa cells at 2 to 8 uM; format: functional, cell-based; conditions: dose 2-8 µM
[9] = system: HeLa; experiment: Induction of autophagy in human HeLa cells assessed as increase in number of autophagosomes incubated for 48 hrs by transmission electron microscopic analysis; format: functional, cell-based
[10] = biological target: Small ribosomal subunit protein eS6 (Homo sapiens) (UniProt P62753); experiment: Binding affinity to RPS6 in human HeLa cells assessed as stabilization of protein at 100 uM at 70 degreeC by cellular thermal shift assay; format: cell-based
[11] = biological target: Small ribosomal subunit protein eS6 (Homo sapiens) (UniProt P62753); experiment: Binding affinity to RPS6 in human HeLa cells assessed as increase in protein abundance in presence of pronase by DARTS assay; format: cell-based
[12] = system: HeLa; experiment: Induction of apoptosis in human HeLa cells assessed as upregulation of p53 expression incubated for 48 hrs by Western blot analysis; format: functional, cell-based
[13] = system: HeLa; experiment: Induction of autophagy in human HeLa cells assessed as downregulation of AKT phosphorylation at 2 to 8 uM incubated for 48 hrs by Western blot analysis; format: functional, cell-based; conditions: dose 2-8 µM
[14] = system: HeLa; experiment: Inhibition of cell migration in human HeLa cells incubated for 48 hrs by scratch wound healing assay; format: functional, cell-based
[15] = system: HeLa; experiment: Induction of apoptosis in human HeLa cells assessed as upregulation of cleaved PARP expression incubated for 48 hrs by Western blot analysis; format: functional, cell-based
[16] = system: Cell membrane; experiment: Disruption of mitochondrial membrane in human HeLa cells assessed as decrease in fluorescence intensity at 2 to 8 uM incubated for 48 hrs by mito-tracker green dye based fluorescence microscopic analysis; format: cell membranes; conditions: dose 2-8 µM
[17] = system: HeLa; experiment: Induction of autophagy in human HeLa cells assessed as downregulation of mTOR expression at 2 to 8 uM incubated for 48 hrs by Western blot analysis; format: functional, cell-based; conditions: dose 2-8 µM
[18] = system: HeLa; experiment: Induction of autophagy in human HeLa cells assessed as upregulation of Beclin-1 expression incubated for 48 hrs by immunofluorescence assay; format: functional, cell-based
[19] = system: HeLa; experiment: Induction of autophagy in human HeLa cells assessed as downregulation of PI3K phosphorylation at 2 to 8 uM incubated for 48 hrs by Western blot analysis; format: functional, cell-based; conditions: dose 2-8 µM
[20] = system: HeLa; experiment: Antitumor activity against human HeLa cells xenografted in BALB/c mouse assessed as reduction in tumor volume at 15 to 60 mg/kg,ip once daily for 14 days; format: functional, organism-based; conditions: dose 15-60 mg/kg, time 14.0 day
[21] = system: Cell membrane; experiment: Disruption of lysosomal membrane in human HeLa cells assessed as decrease in fluorescence intensity at 2 to 8 uM incubated for 48 hrs by lyso-tracker red dye based fluorescence microscopic analysis; format: cell membranes; conditions: dose 2-8 µM
[22] = system: HeLa; experiment: Induction of autophagy in human HeLa cells assessed as downregulation of SQSTM1/p62 expression at 2 to 8 uM incubated for 48 hrs by Western blot analysis; format: functional, cell-based; conditions: dose 2-8 µM
[23] = system: HeLa; experiment: Induction of autophagy in human HeLa cells assessed as upregulation of LC3 expression incubated for 48 hrs by immunofluorescence assay; format: functional, cell-based
[24] = system: HeLa; experiment: Induction of autophagy in human HeLa cells with siRNA-mediated RPS6 knockdown assessed as upregulation of Beclin-1 expression at 4 uM incubated for 48 hrs by Western blot analysis; format: functional, cell-based
[25] = system: HeLa; experiment: Induction of autophagy in human HeLa cells assessed as downregulation of AKT expression at 2 to 8 uM incubated for 48 hrs by Western blot analysis; format: functional, cell-based; conditions: dose 2-8 µM
[26] = system: HeLa; experiment: Antitumor activity against human HeLa cells xenografted in BALB/c mouse assessed as reduction in tumor weight at 15 to 60 mg/kg,ip once daily for 14 days; format: functional, organism-based; conditions: dose 15-60 mg/kg, time 14.0 day
[27] = system: HeLa; experiment: Induction of autophagy in human HeLa cells assessed as upregulation of LC3 expression at 2 to 8 uM incubated for 48 hrs by Western blot analysis; format: functional, cell-based; conditions: dose 2-8 µM
[28] = system: HeLa; experiment: Induction of autophagy in human HeLa cells with siRNA-mediated RPS6 knockdown assessed as upregulation of LC3 expression at 4 uM incubated for 48 hrs by Western blot analysis; format: functional, cell-based
[29] = biological target: Small ribosomal subunit protein eS6 (Homo sapiens) (UniProt P62753); experiment: Inhibition of RPS6 in human HeLa cells assessed as downregulation of RPS6 expression at 2 to 8 uM incubated for 48 hrs by Western blot analysis; format: cell-based; conditions: dose 2-8 µM
[30] = system: HeLa; experiment: Induction of apoptosis in human HeLa cells assessed as upregulation of Bax expression incubated for 48 hrs by Western blot analysis; format: functional, cell-based
[31] = system: HeLa; experiment: Induction of autophagy in human HeLa cells assessed as upregulation of Beclin-1 expression at 2 to 8 uM incubated for 48 hrs by Western blot analysis; format: functional, cell-based; conditions: dose 2-8 µM
[32] = system: HeLa; experiment: Induction of autophagy in human HeLa cells assessed as increase in number of MDC-positive cells incubated for 48 hrs by MDC staining based fluorescence microscopic analysis; format: functional, cell-based
[33] = biological target: Small ribosomal subunit protein eS6 (Homo sapiens) (UniProt P62753); experiment: Inhibition of RPS6 in human HeLa cells assessed as downregulation of RPS6 phosphorylation at 2 to 8 uM incubated for 48 hrs by Western blot analysis; format: cell-based; conditions: dose 2-8 µM
[34] = system: Cell membrane; experiment: Induction of mitochondrial membrane potential loss in human HeLa cells assessed as decrease in red fluorescence at 2 to 8 uM incubated for 48 hrs by JC-1 staining based flow cytometry; conditions: dose 2-8 µM
[35] = system: HeLa; experiment: Antitumor activity against human HeLa cells xenografted in BALB/c mouse assessed as necrotic cells in tumor at 15 to 60 mg/kg,ip once daily for 14 days; format: functional, organism-based; conditions: dose 15-60 mg/kg, time 14.0 day
[36] = system: HeLa; experiment: Induction of autophagy in human HeLa cells with siRNA-mediated RPS6 knockdown assessed as downregulation of SQSTM1/p62 expression at 4 uM incubated for 48 hrs by Western blot analysis; format: functional, cell-based

CCOC(=O)C[C@H]1CSC[C@]1(C(=O)OCC)n1cnc2c(Cl)nc(Cl)nc21 (racemic)
Activity [1]: Active | Activity [2]: Active | inhibition [3]: Active | Activity [4]: Active | inhibition [5]: Active | Activity [6]: Active | Activity [7]: Dose-Dependent Effect | Activity [8]: inactive | Activity [9]: Dose-Dependent Effect | Activity [10]: Active | Activity [11]: Active | Activity [12]: Dose-Dependent Effect | Activity [13]: Active | inhibition [14]: Dose-Dependent Effect | Activity [15]: Dose-Dependent Effect | Activity [16]: Active | Activity [17]: Active | Activity [18]: Active | Activity [19]: Active | Activity [20]: Active | Activity [21]: Active | Activity [22]: Active | Activity [23]: Active | Activity [24]: Active | Activity [25]: Active | Activity [26]: Active | Activity [27]: Active | Activity [28]: Active | inhibition [29]: Active | Activity [30]: Dose-Dependent Effect | Activity [31]: Active | Activity [32]: Dose-Dependent Effect | inhibition [33]: Active | Activity [34]: Active | Activity [35]: Active | Activity [36]: Active
